Columns and labels:
[1] = Forced degradation testing of Levetiracetam blends (Table 8), Levetiracetam acid and total impurities by HPLC; type: physicochemical; settings: blend, 12 Day exposure, 60 C./75% RH
[2] = Forced degradation testing of Levetiracetam tablets and powder blends, 12 days, impurities by HPLC; type: physicochemical; settings: Levetiracetam examples, forced degradation conditions
Experimental: 1.4 g of anhydrous di basic sodium phosphate in 1 liter of water. Adjusted to pH 3.5 with Orth phosphoric acid. Filter buffer with 0.45 um Nylon membrane filter paper. A mixture of 95 volumes of buffer solution and 5 volumes of Acetonitrile. To each 1 Liter of the mixture, add 1 g of sodium 1-hexanesulfonate monohydrate. […] Cool and make up to the volume with water. (Standard Stock Solution 2500 ppm). Next, Dilute 5 mL of standard solution a to 50 mL with water (Standard Solution (a) 250 ppm), further Dilute 5 mL of standard solution (a) to 100 mL with water (Standard Solution 12.5 ppm). […] Cool to room temperature and add 25 mL of acetonitrile to volumetric flask and make up the volume with water and centrifuge for 15 min @ 3500 RPM. filter the solution with 0.45 μm PVDF Millipore membrane syringe filter by discarding first 5 mL of filtrate. Dilute 5 mL of filtrate to 10 mL with water (2500 ppm). This group of examples is subjected to forced degradation testing conditions, where each example is formed into a tablet and then stored at 60 to 80 degrees C. and 75% relative humidity for a period of 5 or 12 days. At the end of the 5 days or 12 days each tablet is tested for its pH level and percent impurities. […]

Row | Levetiracetam Acid [1] | WT % IMPURITY [2] [WT %] | SMILES
1 | 0.01 |  | CC[C@@H](C(N)=O)N1CCCC1=O [EX 34, Levetiracetam]
2 |  | 0.02 | CC[C@@H](C(N)=O)N1CCCC1=O [EX 31, Levetiracetam]

From patent US20220016035A1, “Extended Release Highly Loaded Drug Compositions” (Lubrizol Advanced Materials, Inc., priority 2017, published 2022)
